Experimental data from paper PMC11901438, “Synthesis and Evaluation of Boron-Containing Heterocyclic Compounds with Antimicrobial and Anticancer Activities” (Molecules, 2025).
Converted amounts (≈) assume the structure as drawn.

Columns and labels:
C. albicans ATCC 90028 = test: Antifungal susceptibility test (CLSI M27-A3 microdilution, resazurin), MIC90; conditions: Candida albicans, ATCC90028, read-out: C. albicans ATCC 90028 MIC90
[1] = set-up: method as in PMID 26640371; conditions: cited from earlier work
[2] = tested on: T. mentagrophytes (ATCC 28185); set-up: method as in PMID 17588934; conditions: cited from earlier work
[3] = tested on: T. rubrum (ATCC 1890, ATCC 18759); set-up: method as in PMID 17588934; conditions: cited from earlier work
[4] = tested on: M. audouinii (ATCC 42558); set-up: method as in PMID 17588934; conditions: cited from earlier work
M. gypseum (ATCC 24103) = tested on: M. gypseum (ATCC 24103); set-up: method as in PMID 17588934; conditions: cited from earlier work
T. mentagrophytes = tested on: T. mentagrophytes; set-up: method as in PMID 29371574; conditions: cited from earlier work
[5] = tested on: E. floccosum (ATCC 525066); set-up: method as in PMID 17588934; conditions: cited from earlier work
T. rubrum = tested on: T. rubrum; set-up: method as in PMID 29371574; conditions: cited from earlier work

CCC(C)n1ncn(-c2ccc(N3CCN(c4ccc(OCC5COC(Cn6cncn6)(c6ccc(Cl)cc6Cl)O5)cc4)CC3)cc2)c1=O (stereo not shown) [Itraconazole]
MIC90 (C. albicans ATCC 90028): 0.34 nM (≈ 0.24 ng/mL)

OB1OCc2cc(F)ccc21 [Tavaborole]
rate of complete cure [1]: ≤ 10%
rate of mycological cure [1]: up to 36%
MIC [2]: 2.0 µg/mL (≈ 13.2 µM)
MIC [3]: 2.0 µg/mL (≈ 13.2 µM)
MIC [4]: 2.0 µg/mL (≈ 13.2 µM)
MIC (M. gypseum (ATCC 24103)): 2.0 µg/mL (≈ 13.2 µM)
MIC (fungistatic effects) (T. mentagrophytes): 8 µg/mL (≈ 52.7 µM)
MIC [5]: 1.0 µg/mL (≈ 6.58 µM)
MIC (fungistatic effects) (T. rubrum): 8 µg/mL (≈ 52.7 µM)
